From EPA's aquatic toxicity sets
Several values for one entry are separate records, joined by “and”; a condition that tells them apart may be missing. Identical values can stand only once.

tested on: Tetrahymena pyriformis; test: 48 h IGC50 (-log10 mol/L); higher = more toxic

Structure (SMILES)	48 h IGC50 (-log10 mol/L)
CC=CCO	1.53
O=C(c1ccc(O)cc1O)c1ccc(O)cc1O	3.96
CCCCCCC#CC(=O)O	3.71
CCC(O)CO (centres undefined)	0.952
OC/C=C/c1ccccc1	2.92
CCCCNC	2.32
COC(=O)C(C)Br (centres undefined)	4.18
CC#CCO	2.13
CC=CC(=O)OC(C)C	2.22
C#CC(=O)OC	4.77
Oc1cc(O)cc(O)c1	1.74
O=[N+]([O-])/C=C/c1ccco1	5.04
CCCCCCOC(=O)c1ccccc1	4.94
CCOC(=O)CCBr	3.13
CCCCC/C=C/C(=O)OC	3.77
OCCc1cccc2ccccc12	3.27
Cc1cc(=O)[nH]cc1[N+](=O)[O-]	2.83
CCCCCC#CC(=O)O	2.94
O=Cc1cccs1	2.95
O=[N+]([O-])c1cc(F)ccc1O	4.38
COC(N)=O	1.02
N#Cc1ccccc1Cl	3.28
NC(=O)COc1ccccc1	2.27
N#CCCBr	2.5
O=Cc1ccc(Cl)c([N+](=O)[O-])c1	4.19

Structure (SMILES)	48 h IGC50 (-log10 mol/L)
O=C(O)CCCCl	2.32
Oc1ccc(O)c(Br)c1	4.68
CCOC(=O)C=C(OCC)OCC	2.35
CCOC(=O)C(Br)CBr (centres undefined)	5.21
CCCC(N)CO (centres undefined)	2.33
CC(O)C(c1ccccc1)c1ccccc1 (centres undefined)	3.75
NCCCCO	2.02
CCC(C)C(=O)OC (centres undefined)	1.83
OCCc1ccc(Cl)cc1	3.32
C=CS(=O)(=O)c1ccccc1	4.28
CCCCCOc1ccc(C=O)cc1	4.18
O=C(Oc1ccccc1)c1ccc(O)cc1	4.37
CCOC(=O)c1ccc(O)cc1	3.57
CCOC(=O)c1ccc(Cl)cc1	3.75
N#Cc1cccnc1	2.26
CCCOC(=O)CCl	4.18
OCc1ccc(Cl)cc1	3.25
N#Cc1cc(Br)c(O)c(Br)c1	4.16
CCCCCCCCCCCC#N	4.9
O=C(O)c1cccc(Cl)c1	2.87
O=C(O)Cc1ccc(O)cc1	1.5
CCCCCCO	2.62
CCCCCCC(=O)O	2.89
CCOC(=O)C[C@@H](C)O	1.47
O=[N+]([O-])c1ccc2ccccc2c1O	4.36

Structure (SMILES)	48 h IGC50 (-log10 mol/L)
Nc1cc(Cl)c([N+](=O)[O-])cc1O	4.17
CC(C)=CC=O	3.09
NC(=O)c1ccco1	1.56
CCCCCCCCCCCC(C)O (centres undefined)	5.17
CCc1ccc(Br)cc1	3.67
CC(=O)c1ccc(O)c(C(N)=O)c1	2.9
Cc1ccnc(C)c1	2.35
ClCCc1ccccc1	3.17
NCCCCCO	1.24
CCCCCCC#CCCO	4.13
CCCCCCCCC(=O)O	3.35
CCCCOC(=O)/C=C/c1ccccc1	4.53
COC(=O)CCCC(=O)OC	1.83
CCCCCCCC(C)O (centres undefined)	3.62
CCCCCCCl	3.78
Cc1ccc(CCN)cc1	2.96
CCOC(=O)C(C(=O)OCC)=C(C)C	2.93
Nc1cc(F)c([N+](=O)[O-])cc1[N+](=O)[O-]	4.69
Cc1c(O)c(Br)c(Br)c(Br)c1Br	5.57
CCCCCOC(C)=O	3.16
C=CC(C)(C)O	1.61
Cc1ccc(N)cc1Cl	3.39
CC(C)(C)C(N)=O	1.52
O=C(O)c1cc(Br)cc(Br)c1	3.46
C=C(C)C(=O)OCC(CC)CCCC (centres undefined)	4.57

Structure (SMILES)	48 h IGC50 (-log10 mol/L)
O=[N+]([O-])c1ccc(Br)s1	4.41
O=C(c1ccccc1)c1ccc(O)c(O)c1O	3.88
c1ccc(Cc2cccnc2)cc1	3.68
N#Cc1ccccc1N	2.5
CC#CC(C)(O)CCC (centres undefined)	2.52
OCCCCCCCl	2.73
CCOC(=O)CC#N	1.77
C#CC(C)(O)CCC (centres undefined)	2.1
CCOC(=O)CCCC(=O)CC(=O)OCC	2.62
CC(C)C(Br)C(=O)O (centres undefined)	2.45
NNC(=O)Cc1ccccc1	2.52
CCCCCC/C=C/C=O	4.6
CCCCCCCCC=O	3.81
CCCCCCCCCCOC(=O)CC#N	4.7
Cc1ccc(Br)cc1	3.47
O=C/C=C/c1ccccc1	3.68
Cc1cc(C)c(O)c(C(C)(C)C)c1	4.16
S=C=NCCCN=C=S	5.72 and 5.74
N#Cc1ccccc1C#N	2.66
N#Cc1cccc(N)c1	2.53
ClC/C=C/CCl	3.77
CCN(C)C	2.09
CCCCCCC#CC(=O)OCC	4.38
CCCCCCCCNC(N)=S	4.51
O=Cc1cccc([N+](=O)[O-])c1O	3.87

Structure (SMILES)	48 h IGC50 (-log10 mol/L)
CC/C=C/CBr	3.77
O=C(OCc1ccccc1)c1ccccc1	4.45
CC=CC(=O)OCC(C)C	2.66
CCCCCCCCCCC#CCCO	5.38
COc1cc(O)cc(Cl)c1	3.76
C#CCC(O)CC (centres undefined)	1.6
O=[N+]([O-])c1ccc(Br)cc1	3.38
CCC=C(C)C=O	2.98
CC(C)(C)c1cc([N+](=O)[O-])c(O)c([N+](=O)[O-])c1	4.8
CCOC(=O)c1ccc(C#N)cc1	3.37
C=COC(=O)C=C	4.42
O=C1C=C(c2ccccc2)C(=O)C=C1c1ccccc1	4.48
c1cncnc1	1.25
OC(CCl)CCl	2.21
O=C(CBr)Nc1cc([N+](=O)[O-])ccc1O	3.87
COC(=O)c1ccc(C#N)cc1	2.95
CCOC(=O)CBr	5.68
Clc1cc(Cl)cc(Cl)c1	3.87
CCC(=O)C(=O)CC	2.99
CCCCCCCCCCO	4.33
CN(C)Cc1cc(CN(C)C)c(O)c(CN(C)C)c1	2.48
C=CCI	3.8
C/C=C/CC(=O)OC	2.72
N#Cc1cccc(O)c1	2.94
NC(=O)CCCl	1.41

Structure (SMILES)	48 h IGC50 (-log10 mol/L)
CCOC(=O)C(C#N)c1ccccc1 (centres undefined)	2.98
C=CCCO	1.3
O=C(c1ccccc1)c1ccccc1O	4.23
O=C(O)CCBr	2.96
C=COC(=O)C(=C)C	2.38
CC(=O)O[C@@H]1C[C@@H]2CC[C@@]1(C)C2(C)C	3.68
O=Cc1cc(O)ccc1O	3.28
C#CC(=O)OCC	4.7
Fc1ccccn1	1.8
O=C(Oc1ccccc1)c1ccccc1	4.35
CNCCc1ccccc1	2.59
CC(C)(C)c1ccc(O)c(N)c1	3.37
CCCCCCCCC(O)CO (centres undefined)	3.76
NCC(O)CN	1.57
NC(=S)c1ccccc1	3.09
NCCc1ccc(Cl)cc1	3.14
COc1cccc(C=O)c1O	3.38
Nc1cccc(I)c1	3.65
CC(=O)c1ccc(O)cc1O	3.25
C=CC(=O)CCC	4.66
CC(C)(C)c1ccc(Br)cc1	3.75
OCc1ccc2ccccc2c1	3.39
CCSCC	2.02
CCCCCl	2.09
C/C=C/CCCO	2.25

Structure (SMILES)	48 h IGC50 (-log10 mol/L)
ClCC=CCCl	4.02
OCC(O)CBr (centres undefined)	1.79
Oc1cc(Cl)ccc1Cl	4.13
CCCCCCC(O)CC (centres undefined)	3.36
O=C1C=CC(=O)c2ccccc21	5
COc1ccc(C=O)cc1O	2.86
CCOC(=O)C(C)(C)Br	3.15
C=CC(=O)OCCC	3.53
Cc1cc(Br)cc(C)c1O	4.16
Oc1ccccc1-c1ccccc1O	3.88
CC(Br)C(N)=O (centres undefined)	3
O=[N+]([O-])c1ccc(CBr)cc1	5.31
N#CC(Cl)Cl	3.97
O=C(O)c1ccc(Cl)c(Cl)c1	3.31
CCc1ccc([N+](=O)[O-])cc1	3.43
O=C1CCCO1	1.28
CCC(=O)CC	1.54
C#CC(C)=O	4.96
CCc1ccc(N)cc1	3.03
